Where two headings read alike, the source gives them in different places.
Experiments:
Format in all cases: cell-based
[1] = system: Human leukemia cells (HL-60); assay: Cell growth inhibition by direct cell counting, HL-60; details: HL-60 cells, drug concentration at 50% cell growth inhibition, read-out: IG50 (the source's name)
Procedure: (§1) Cells were taken out carefully from liquid nitrogen (Frozen pipes), and the cell freezing medium was thawed rapidly in water bath at 37° C. in order to rapidly pass through the temperature range of 0 to 5° C. within which the cell is easily damaged. Cell suspension was sucked with pipette gun and put it into centrifugal tubes under sterile condition, then was centrifuged for 3 min at 1300 r/min. The supernatant was gently discarded, and then added with a fresh medium to pipette and mix the cells. Finally, the cells were transferred into culture flasks, and cultured in a carbon dioxide incubator. The medium was changed once after 24 h.
(§2) Human leukemia cells (HL-60) were cultured in RPMI1640 medium containing 10% (v/v) fetal bovine serum, 100 U/mL penicillin and 100 μg/mL streptomycin. Murine leukemia cells (P388) and murine multidrug resistant leukemia cells (P388/Adr) were cultured in Eagle's minimum essential medium (MEM) containing 10% (v/v) fetal bovine serum, 100 U/mL penicillin and 100 μg/mL streptomycin. All of the above cell lines were incubated in 37° C. incubator with 5% carbon dioxide saturated humidity.
(§3) After resuscitation, the cells were passed for 2-3 generations till they became stable, then they were used for the experiments. Each passage was based on the standard that all cells were spread over the bottoms of culture flasks.
(§4) Cell suspensions of a certain density (5×10^4 cells/mL) were plated at 24-well plate, 2 mL/well. Different concentration of drugs were added thereto, and incubated or some time. Then, cells were counted under the microscope. The ratio of total number of cells in test group to the total number of cells in control group is the cell growth inhibition rate under the concentration condition. The total number of cells in cell suspension, which were treated by drugs, could be counted by blood count board. Inhibition rate was calculated using the formula: […]
(§5) According to cell growth inhibition rate of each concentration of drugs, half inhibitory concentration could be calculated. (IG50 is the drug concentration, when cell growth inhibition rate was 50%.)

[2] = system: Murine leukemia cells (P388); assay: Cell growth inhibition by direct cell counting, P388; details: read-out: IG50 P388
Procedure: as §1, §2, §3, §4, §5
(§6) 6) The Results of the Growth Inhibitory Activity of the Compounds on Murine Leukemia Cells (P388) and Murine Multidrug Resistant Leukemia Cells (P388/Adr) were Listed in Table 2.

[3] = system: murine multidrug resistant leukemia cells (P388/Adr); assay: Cell growth inhibition by direct cell counting, P388/Adr; details: read-out: IG50 P388/Adr
Procedure: as §1, §2, §3, §4, §5, §6

Row | IC50 ([1]; Homo sapiens) [nM] | IC50 ([2]; Mus musculus) [nM] | IC50 ([3]; Mus musculus) [nM] | Compound | IC50 [1] [nM] | IC50 [2] [nM] | IC50 [3] [nM]
1 |  |  |  | CC1CCC2C(C)[C@@H](Oc3ccc(CN4CCN(c5ccccc5)CC4)cc3)OC3OC4(C)CCC1C32OO4 (some centres unmarked) [Example 10] | 33 | 70 | 88
2 | 228 | 880 | 804 | C[C@H]1[C@@H](Oc2ccc(CN3CCCCC3)cc2)O[C@@H]2O[C@]3(C)CC[C@H]4[C@H](C)CC[C@@H]1[C@@]24OO3 [Example 5, (10S)—O-[4-((piperidin-1-yl)methyl)phenyl]-dihydroartemisinin] |  |  | 
3 |  |  |  | CC1CCC2C(C)[C@@H](Oc3ccc(/C=C/C(=O)N4CCN(c5ccccc5)CC4)cc3)OC3OC4(C)CCC1C32OO4 (stereo partly drawn) [Example 26, (10S)—O-{4-[3-oxo-3-(4-phenylpiperazin-1-yl)-1-(E)-propen-1-yl]phenyl}-dihydroartemisinin] |  | 145 | 153
